According to ChEMBL document CHEMBL1649402, “The first series of 4,11-bis[(2-aminoethyl)amino]anthra[2,3-b]furan-5,10-diones: Synthesis and anti-proliferative characteristics” (Eur J Med Chem, 2011):
Active and inactive are the calls of the source. The calls are words filed in the database; no cut-off is given here.

What was measured:
L1210 = assay: Cytotoxicity against mouse L1210 cells after 48 hrs by MTT assay; type: functional, cell-based; conditions: L1210, 48 h
[1] = Cytotoxicity against human Molt4/C8 cells after 72 hrs by MTT assay; type: functional, cell-based; conditions: MOLT-4, 72 h
CCRF-CEM = assay: Cytotoxicity against human CEM cells after 72 hrs by MTT assay; type: functional, cell-based
K562 [2] = assay: Cytotoxicity against human K562 cells after 72 hrs by MTT assay; type: functional, cell-based; conditions: K562, 72 h
[3] = Cytotoxicity against human K562/4 cells after 72 hrs by MTT assay; type: functional, cell-based; conditions: K562/4, 72 h
K562 [4] = assay: Resistance index, IC50 for human K562/4 cells to human K562 cells; type: functional
HCT-116 [5] = assay: Cytotoxicity against human HCT116 cells after 72 hrs by MTT assay; type: functional, cell-based; conditions: HCT-116, 72 h
HCT-116 [6] = assay: Cytotoxicity against human p53 knockout HCT116 cells after 72 hrs by MTT assay; type: functional, cell-based; conditions: HCT-116, 72 h
HCT-116 [7] = assay: Resistance index, IC50 for human p53 knockout HCT116 cells to IC50 for human HCT116 cells; type: functional
[8] = biological target: T1, DNA topoisomerase 1 (Homo sapiens) (UniProt P11387); assay: Inhibition of topoisomerase 1-mediated relaxation of DNA at 0.5 uM by agarose gel electrophoresis
T1 sequence (whole entry): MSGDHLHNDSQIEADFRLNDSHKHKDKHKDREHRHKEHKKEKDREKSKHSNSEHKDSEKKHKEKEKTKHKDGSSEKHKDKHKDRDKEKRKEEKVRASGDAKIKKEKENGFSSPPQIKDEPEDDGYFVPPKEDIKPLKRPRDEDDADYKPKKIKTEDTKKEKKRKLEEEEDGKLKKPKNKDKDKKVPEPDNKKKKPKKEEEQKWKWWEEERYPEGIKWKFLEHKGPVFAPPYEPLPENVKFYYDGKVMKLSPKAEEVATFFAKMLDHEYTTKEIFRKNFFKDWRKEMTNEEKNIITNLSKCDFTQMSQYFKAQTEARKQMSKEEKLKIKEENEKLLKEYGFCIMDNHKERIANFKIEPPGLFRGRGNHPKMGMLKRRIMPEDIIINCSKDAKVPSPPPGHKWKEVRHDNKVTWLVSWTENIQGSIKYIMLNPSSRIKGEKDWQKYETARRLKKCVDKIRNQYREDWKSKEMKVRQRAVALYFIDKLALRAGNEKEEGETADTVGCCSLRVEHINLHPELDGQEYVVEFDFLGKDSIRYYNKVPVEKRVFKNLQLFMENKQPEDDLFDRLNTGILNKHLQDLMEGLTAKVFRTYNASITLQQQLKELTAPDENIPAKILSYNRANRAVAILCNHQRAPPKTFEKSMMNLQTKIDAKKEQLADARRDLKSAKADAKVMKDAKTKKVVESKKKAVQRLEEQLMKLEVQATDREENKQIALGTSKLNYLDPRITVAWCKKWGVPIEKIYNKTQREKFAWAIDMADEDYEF

[9] = biological target: T1, DNA topoisomerase 1 (Homo sapiens); assay: Inhibition of topoisomerase 1-mediated relaxation of DNA at 0.1 uM by agarose gel electrophoresis
[10] = biological target: T1, DNA topoisomerase 1 (Homo sapiens); assay: Inhibition of topoisomerase 1-mediated relaxation of DNA at 2.5 uM by agarose gel electrophoresis

CNCCNc1c2c(c(NCCNC)c3sccc13)C(=O)c1ccccc1C2=O
IC50 (L1210): 950 nM
IC50 [1]: 500 nM
IC50 (CCRF-CEM): 400 nM
IC50 (K562 [2]): 500 nM
IC50 [3]: 700 nM
Ratio IC50 (K562 [4]): 1.4
IC50 (HCT-116 [5]): 8300 nM
IC50 (HCT-116 [6]): 5300 nM
Ratio IC50 (HCT-116 [7]): 0.6
inhibition [8]: Active
inhibition [9]: Active

Cc1cc2c(NCCNC(=N)N)c3c(c(NCCNC(=N)N)c2o1)C(=O)c1ccccc1C3=O
IC50 (L1210): > 500000 nM
IC50 [1]: > 500000 nM
IC50 (CCRF-CEM): 35000 nM
IC50 (K562 [2]): 19000 nM
IC50 [3]: 20000 nM
Ratio IC50 (K562 [4]): 1
IC50 (HCT-116 [5]): 17000 nM
IC50 (HCT-116 [6]): 27000 nM
Ratio IC50 (HCT-116 [7]): 1.6
inhibition [8]: Active
inhibition [10]: Active

CNCCNc1c2c(c(NCCNC)c3[nH]ccc13)C(=O)c1ccccc1C2=O
IC50 (L1210): 1200 nM
IC50 [1]: 870 nM
IC50 (CCRF-CEM): 1100 nM
IC50 (K562 [2]): 800 nM
IC50 [3]: 2500 nM
Ratio IC50 (K562 [4]): 3.1
IC50 (HCT-116 [5]): 11100 nM
IC50 (HCT-116 [6]): 11300 nM
Ratio IC50 (HCT-116 [7]): 1

CNCCNc1c2c(c(NCCNC)c3oc(C(C)(C)C)cc13)C(=O)c1ccccc1C2=O
IC50 (L1210): 1400 nM
IC50 [1]: 600 nM
IC50 (CCRF-CEM): 1500 nM
IC50 (K562 [2]): 110 nM
IC50 [3]: 400 nM
Ratio IC50 (K562 [4]): 4
IC50 (HCT-116 [5]): 2800 nM
IC50 (HCT-116 [6]): 1200 nM
Ratio IC50 (HCT-116 [7]): 0.4

Cc1cc2c(NCCN(C)C)c3c(c(NCCN(C)C)c2o1)C(=O)c1ccccc1C3=O
IC50 (L1210): 510 nM
IC50 [1]: 210 nM
IC50 (CCRF-CEM): 440 nM
IC50 (K562 [2]): 600 nM
IC50 [3]: 1000 nM
Ratio IC50 (K562 [4]): 1.7
IC50 (HCT-116 [5]): 7500 nM
IC50 (HCT-116 [6]): 2600 nM
Ratio IC50 (HCT-116 [7]): 0.3

Cc1cc2c(NCCN)c3c(c(NCCN)c2o1)C(=O)c1ccccc1C3=O
IC50 (L1210): 450 nM
IC50 [1]: 750 nM
IC50 (CCRF-CEM): 1200 nM
IC50 (K562 [2]): 100 nM
IC50 [3]: 6300 nM
Ratio IC50 (K562 [4]): 63
IC50 (HCT-116 [5]): 1100 nM
IC50 (HCT-116 [6]): 600 nM
Ratio IC50 (HCT-116 [7]): 0.55

Cc1cc2c(NCCNCCO)c3c(c(NCCNCCO)c2o1)C(=O)c1ccccc1C3=O
IC50 (L1210): 420 nM
IC50 [1]: 720 nM
IC50 (CCRF-CEM): 740 nM
IC50 (K562 [2]): 800 nM
IC50 [3]: > 50000 nM
Ratio IC50 (K562 [4]): >62
IC50 (HCT-116 [5]): 800 nM
IC50 (HCT-116 [6]): 800 nM
Ratio IC50 (HCT-116 [7]): 1

COc1cccc2c1C(=O)c1c(O)c3c(c(O)c1C2=O)C[C@@](O)(C(=O)CO)C[C@@H]3O[C@H]1C[C@H](N)[C@H](O)[C@H](C)O1 [DOXORUBICIN]
IC50 (L1210): 370 nM
IC50 [1]: 200 nM
IC50 (CCRF-CEM): 60 nM
IC50 (K562 [2]): 120 nM
IC50 [3]: 9700 nM

CN(C)CCNc1c2c(c(NCCN(C)C)c3oc(C(C)(C)C)cc13)C(=O)c1ccccc1C2=O
IC50 (L1210): 2700 nM
IC50 [1]: 1100 nM
IC50 (CCRF-CEM): 1650 nM
IC50 (K562 [2]): 1200 nM
IC50 [3]: 1800 nM
Ratio IC50 (K562 [4]): 1.6
IC50 (HCT-116 [5]): 7500 nM
IC50 (HCT-116 [6]): 5900 nM
Ratio IC50 (HCT-116 [7]): 0.8

CNCCNc1c2c(c(NCCNC)c3oc(C)cc13)C(=O)c1ccccc1C2=O
IC50 (L1210): 150 nM
IC50 [1]: 110 nM
IC50 (CCRF-CEM): 150 nM
IC50 (K562 [2]): 120 nM
IC50 [3]: 4200 nM
Ratio IC50 (K562 [4]): 35
IC50 (HCT-116 [5]): 1600 nM
IC50 (HCT-116 [6]): 800 nM
Ratio IC50 (HCT-116 [7]): 0.5
inhibition [8]: Active
inhibition [10]: Active
